Reference: patent US20160090351A1, “INHIBITORS OF DEUBIQUITINATING PROTEASES” (BRANDEIS UNIVERSITY, priority 2013, published 2016)
Entries after “also recorded” stand apart in the source; their conditions may differ.

Experiments:
[1] = tested on: USP9x, USP19, USP7/8, USP28/15; assay: HA-Ub-VS activity profiling in cell lysates, USPs; type: biochemical, human
B16/F10 cells = assay: proliferation and cell cycle of B16/F10 cells; type: cell-based, mouse
Protocol: A. MCF7 cells were treated with C17 for 4 h and Mdm2 levels were measured. B. As in A, P53 measured. C. As in A, P21 measured. D. MCF7 and B16/F10 cells were treated with C17 every 24 hours. After 72 hours, the number of viable cells was measured by Alamar Blue®.
MCF7 cells were dosed every 2 hours with the indicated concentration of C15. After 6 hours, cells were lysed by freeze thaw and then sonicated in 0.5% SDS. A. Total lysates were blotted for K48-linked ubiquitin and actin. B. Normalized K48-linked ubiquitin signal was plotted as a function of concentration of C15 (N=2). C. […] Doxorubicin (Dox) is a DNA damaging agent that serves as a positive control for the induction of P53. D. Quantitation of P53 levels in C relative to actin (N=2). […] MCF7 cells were treated under the stated conditions then analyzed for cell cycle. F. DMSO treated cells. G. Cells treated with C17 (25 μM), dosed every 24 hours. H. Cells treated with C17 (50 μM), dosed every 24 hours. […] These cells were left for 72 h (single dose) after which time the total number of viable cells was analyzed using Alamar Blue®. All data are n≧4 showing mean+/−s.e.m. K. MCF7 cells were plated with C17 for 24 hours after which time the total number of viable cells was measured by Alamar Blue®. L. B16/F10 cells were treated with DMSO, C17 or P005091 for 72 h. […] After this time, cells were analyzed by flow cytometry.
All cells were grown at 37° C. in a 5% CO2 humidified atmosphere in DMEM supplemented with 10% heat inactivated FBS, 1× glutamax, and 1× penicillin/streptomycin. […] Typically clarified lysate was analyzed. […] Lysates were centrifuged (20 000 rpm, microcentrifuge, Eppendorf 5417 C) concentration was measured, then 0.1% SDS was added and lysates were sonicated for a total of 30 s (in 10 s bursts). Protein concentration was determined using Bradford assay with IgG as standard and analyzed by western blot as delineated below {[9 μg total protein for K48-linked ubiquitin (1:9000 antibody dilution), SMAD4 (1:500) or PARP (1:1000)]; [30-40 μg was loaded for K63-linked ubiquitin (1:1500), Mdm2 (1:1000) or Abl (1:1500). […]

Cos-1 cells = assay: accumulation of K48- and K63-linked HMW-Ub in Cos-1 cells; type: cell-based, monkey
Protocol: A. Cos-1 cells were treated with C15 dosing every 2 h for 4 hours. Cells were lysed in standard lysis buffer (without detergent) and the sample was clarified prior to analysis. The accumulation of K48-linked ubiquitin was assayed by SDS-PAGE and by western blot. An intervening lane has been removed for clarity. B Lysates and pellet in A were sonicated in SDS at 4° C., centrifuged then analyzed by SDS-PAGE and by western blot. An intervening lane has been removed for clarity. C. Quantitation of blots in A. D. Quantitation of blots in B.
FIG. 39 depicts data showing the effects of diphenyl carbonates in whole cells. A. Cos-1 cells expressing GFP-Ub(G76V) were treated with the stated diphenyl carbonate (100 μM), bortezomib (B, 20 μM) or DMSO (D) for 8 h. GFP levels were quantified by flow cytometry. B. Cells from A were assessed for viability using propidium iodide dye exclusion assay. C. […] After this time GFP levels were quantified by flow cytometry. D. Cells from C were assessed for viability using propidium iodide dye exclusion. […] G. Cos-1 cells were treated with C15 for 2 hours then analyzed for K48-linked ubiquitin by western blot. […] I. Quantitation of blots in […] (N=3).
Transfected cells were harvested 1.5 days post transfection. […] Typically clarified lysate was analyzed.

desumoylation = assay: stabilization of SUMOylated proteins in lysates from HA-SUMO transfected HEK 293T cells; type: biochemical, human; conditions: G5 5 μM, C4 300 μM
Protocol: Untransfected HEK 293T cell lysates were treated with the vehicle alone (DMSO at 1%) or compound and incubated at 37° C. for 2 h. Samples were analyzed by SDS-PAGE and immunoblotting with antibody recognizing K48-linked ubiquitin. D=DMSO; G5=G5 isopeptidase inhibitor 1. A-D show titrations of different compounds (see FIG. 29B for structures). E-H Lysates were prepared from HEK 293T cells expressing HA-SUMO and treated with vehicle alone (DMSO, 1%) or compound. Samples were incubated for the appropriate time and analyzed by SDS-PAGE and immunoblotting with anti-HA antibody. Representative experiments are shown. E. Vehicle control. F. G5, 5 μM; G. C4, 300 μM. H. Quantification of blots as in E-G, N=2 average and range. I-J. Lysates were prepared from HEK 293T cells expressing HA-Ub and treated with either vehicle alone (1% DMSO) or compound at 37° C. for 3 h. Samples were analyzed by SDS-PAGE and immunoblotting with anti-HA antibody. I. A representative experiment. J. Quantitation of experiments in I (N=2 average and range shown). […]
Similar effects were observed when the endogenous K48-linked ubiquitin pool was monitored in lysates prepared from wild-type HEK 293T cells (FIG. 37A-D). Unfortunately, K63-linked ubiquitin could not be detected in these lysates. The ability of C4 to stabilize SUMOylated proteins in lysates from HA-SUMO transfected HEK 293T cells was also assessed.

NCc1ccc(OC(=O)Oc2ccc3ccccc3c2)cc1 [Compound C17]
HA-Ub-VS labeling without preincubation ([1]; C17 25 μM immediately followed by HA-Ub-VS 1.5 μM): not sufficient to inhibit the labeling of any of the DUBs
HA-Ub-VS labeling after preincubation and dilution ([1]; C17 250 μM preincubated, diluted 10-fold): labeling was reduced
cell cycle distribution (B16/F10 cells; 72 h, flow cytometry): decrease in cells in G1 phase and an increase in G2
proliferation (B16/F10 cells; 72 hours, dosed every 24 hours): inhibited proliferation in B16/F10 cells

NCc1ccc(OC(=O)Oc2ccc(Br)cc2)cc1 [Compound C15, 4-(aminomethyl)phenyl(4-bromophenyl)carbonate]
increase in total K48-linked and K63-linked HMW-Ub (Cos-1 cells): 3-5 fold
K48-linked HMW ubiquitin, soluble versus whole cell fraction (Cos-1 cells; dosing every 2 h for 4 hours): causes the accumulation of soluble HMW-Ub in Cos-1 cells; also recorded: only detectable in the soluble fraction

O=C1/C(=C/c2ccc([N+](=O)[O-])cc2)CS(=O)(=O)C/C1=C\c1ccc([N+](=O)[O-])cc1 [Compound G5, reference compound]
inhibition of desumoylation (desumoylation): Neither G5 nor C4 inhibited desumoylation
